Measurements: PubChem BioAssay AID1259411 (Chemical Carcinogenesis Research Information System (CCRIS), 2018)
The source made the active and inactive calls. The rule behind the calls is not given here.

Test system: rodent carcinogenicity bioassays, tumor incidence
Assay: CCRIS carcinogenicity studies
Summary of the method: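 Archive of carcinogenicity, mutagenicity, tumor promotion and tumor inhibition results drawn from journals, NCI reports and other sources, expert-reviewed; covers 1985-2011 and is no longer updated.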

Question: What does the source list for `O=S1OCC2C(CO1)C1(Cl)C(Cl)=C(Cl)C2(Cl)C1(Cl)Cl` (stereo unspecified)?
Answer: carcinogen call (Species: MOUSE, Strain/Sex: B6C3F1/FEMALE, Route: ORAL, Dose: 0, 2.0, 3.9 PPM IN DIET, TWA, Dose: 0, 2.0, 3.9 PPM IN DIET, TWA): inactive; negative; carcinogen call (Species: MOUSE, Strain/Sex: NMRI/FEMALE, Route: ORAL, Dose: 0, 2, 6, 18 PPM IN THE DIET FOR 24 MO (STUDY DURATION: 24 MO), Dose: 0, 2, 6, 18 PPM IN THE DIET FOR 24 MO (STUDY DURATION: 24 MO)): inactive; negative; carcinogen call (Species: MOUSE, Strain/Sex: NMRI/MALE, Route: ORAL, Dose: 0, 2, 6, 18 PPM IN THE DIET FOR 24 MO (STUDY DURATION: 24 MO), Dose: 0, 2, 6, 18 PPM IN THE DIET FOR 24 MO (STUDY DURATION: 24 MO)): inactive; negative; carcinogen call (Species: Mouse, Strain/Sex: NMRI Hoe:NMRKf (SPF71)/Female (60/Group), Route: Oral, Dose: 0 (sesame oil), 2, 6, 18 ppm 97.1% endosulfan in diet for 24 mo, study duration 24 mo., Dose: 0 (sesame oil), 2, 6, 18 ppm 97.1% endosulfan in diet for 24 mo, study duration 24 mo.): inactive; negative; carcinogen call (Species: Mouse, Strain/Sex: NMRI Hoe:NMRKf (SPF71)/Male (60/Group), Route: Oral, Dose: 0 (sesame oil), 2, 6, 18 ppm 97.1% endosulfan in diet for 24 mo, study duration 24 mo., Dose: 0 (sesame oil), 2, 6, 18 ppm 97.1% endosulfan in diet for 24 mo, study duration 24 mo.): inactive; negative; carcinogen call (Species: RAT, Strain/Sex: OSBORNE-MENDEL/FEMALE, Route: ORAL, Dose: 0, 223, 445 PPM IN DIET, TWA, Dose: 0, 223, 445 PPM IN DIET, TWA): inactive; negative; carcinogen call (Species: RAT, Strain/Sex: SPRAGUE-DAWLEY/FEMALE, Route: ORAL, Dose: 0, 3, 7.5, 15, 75 PPM IN THE DIET FOR 104 WK (STUDY DURATION: 104 WK), Dose: 0, 3, 7.5, 15, 75 PPM IN THE DIET FOR 104 WK (STUDY DURATION: 104 WK)): inactive; negative; carcinogen call (Species: RAT, Strain/Sex: SPRAGUE-DAWLEY/MALE, Route: ORAL, Dose: 0, 3, 7.5, 15, 75 PPM IN THE DIET FOR 104 WK (STUDY DURATION: 104 WK), Dose: 0, 3, 7.5, 15, 75 PPM IN THE DIET FOR 104 WK (STUDY DURATION: 104 WK)): inactive; negative; carcinogen call (Species: Rat, Strain/Sex: Crl:CD (SD) BR/Female (50/Group), Route: Oral, Dose: 0, 3.0, 7.5, 15.0, 75.0 ppm in corn oil in diet for 104 wk, study duration 104 wk, Dose: 0, 3.0, 7.5, 15.0, 75.0 ppm in corn oil in diet for 104 wk, study duration 104 wk): inactive; negative; carcinogen call (Species: Rat, Strain/Sex: Crl:CD (SD) BR/Male (50/Group), Route: Oral, Dose: 0, 3.0, 7.5, 15.0, 75.0 ppm in corn oil in diet for 104 wk, study duration 104 wk, Dose: 0, 3.0, 7.5, 15.0, 75.0 ppm in corn oil in diet for 104 wk, study duration 104 wk): inactive; negative

Question: `CCN=[N+](C)[O-]` was tested. Which carcinogen call (Species: RAT, Strain/Sex: F344/MALE, Route: ORAL, Dose: 0, 12, 48 MG/ML IN A NEUTRAL DEIONIZED DRINKING WATER SOLUTION 5 D/WK FOR 30 WK (TOTAL DOSE 36; 144 MG) (STUDY DURATION:, Dose: 0, 12, 48 MG/ML IN A NEUTRAL DEIONIZED DRINKING WATER SOLUTION 5 D/WK FOR 30 WK (TOTAL DOSE 36; 144 MG) (STUDY DURATION:, Tumor Site: Type of Lesion: LIVER: CARCINOMA, HEMANGIOSARCOMA, KIDNEY: TUMOR) did it give?
Answer: The carcinogen call was “active; positive”.

Question: Which carcinogen call (Species: RAT, Strain/Sex: F344/MALE, Route: SUBCUTANEOUS IMPLANT, Dose: 0, 8, 40, 200, 1000 UG IN 50 µL BEESWAX/TRICAPRYLIN IMPLANTED FOR UP TO 45 WK (STUDY DURATION: 45 WK), Dose: 0, 8, 40, 200, 1000 UG IN 50 µL BEESWAX/TRICAPRYLIN IMPLANTED FOR UP TO 45 WK (STUDY DURATION: 45 WK), Tumor Site: Type of Lesion: IMPLANT SITE: TUMOR) does the source give for `O=[N+]([O-])c1ccc2ccc3c4ccccc4c([N+](=O)[O-])c4ccc1c2c43` here?
Answer: Its carcinogen call is “active; positive”.

Question: What about the carcinogen call (Species: RAT, Strain/Sex: F344/MALE, Route: SUBCUTANEOUS, Dose: 0, 8, 40, 200, 1000 UG SUSPENDED IN BEESWAX/TRICAPRYLIN (1:1) ONCE (STUDY DURATION: LIFETIME), Dose: 0, 8, 40, 200, 1000 UG SUSPENDED IN BEESWAX/TRICAPRYLIN (1:1) ONCE (STUDY DURATION: LIFETIME), Tumor Site: Type of Lesion: SUBCUTANEOUS TISSUE: TUMOR) of the same compound?
Answer: Its carcinogen call is “active; positive”.

Question: With `O=C(OC[C@@H]1O[C@H](OC(=O)c2cc(O)c(O)c(OC(=O)c3cc(O)c(O)c(O)c3)c2)[C@@H](OC(=O)c2cc(O)c(O)c(OC(=O)c3cc(O)c(O)c(O)c3)c2)[C@H](OC(=O)c2cc(O)c(O)c(OC(=O)c3cc(O)c(O)c(O)c3)c2)[C@H]1OC(=O)c1cc(O)c(O)c(OC(=O)c2cc(O)c(O)c(O)c2)c1)c1cc(O)c(O)c(OC(=O)c2cc(O)c(O)c(O)c2)c1` as the compound, how does the carcinogen call (Species: MOUSE, Route: SUBCUTANEOUS, Tumor Site: Type of Lesion: LIVER, INJECTION SITE) read?
Answer: Its carcinogen call is “active; positive”.

Question: What about the carcinogen call (Species: RAT, Route: SUBCUTANEOUS, Tumor Site: Type of Lesion: LIVER) of the same compound?
Answer: The carcinogen call was “active; positive”.

Question: And the carcinogen call (Species: RAT, Strain/Sex: F344/FEMALE, Route: ORAL, Dose: 0, 0.25, 0.5% IN DISTILLED WATER AS DRINKING WATER FOR 2 YR (STUDY DURATION: 114 WK), Dose: 0, 0.25, 0.5% IN DISTILLED WATER AS DRINKING WATER FOR 2 YR (STUDY DURATION: 114 WK))?
Answer: Its carcinogen call is “inactive; negative”.

Question: And the carcinogen call (Species: RAT, Strain/Sex: F344/MALE, Route: ORAL, Dose: 0, 0.25, 0.5% IN DISTILLED WATER AS DRINKING WATER FOR 2 YR (STUDY DURATION: 114 WK), Dose: 0, 0.25, 0.5% IN DISTILLED WATER AS DRINKING WATER FOR 2 YR (STUDY DURATION: 114 WK))?
Answer: Its carcinogen call is “inactive; negative”.

Question: `O=c1cc[nH]c(=S)[nH]1` was tested. Which carcinogen call (Species: MOUSE, Route: ORAL, Tumor Site: Type of Lesion: LIVER) did it give?
Answer: The carcinogen call was “active; positive”.

Question: And the carcinogen call (Species: RAT, Route: ORAL, Tumor Site: Type of Lesion: THYROID GLAND)?
Answer: The carcinogen call was “active; positive”.

Question: `CCCOC(N)=O` was tested. Which carcinogen call (Species: MOUSE, Route: INTRAPERITONEAL, Tumor Site: Type of Lesion: LUNG) did it give?
Answer: Its carcinogen call is “active; positive”.

Question: Which carcinogen call (Species: MOUSE, Strain/Sex: DDD/MALE, Route: ORAL, Dose: 0, 100, 200 PPM IN DIET FOR 70 WK (STUDY DURATION: 70 WK), Dose: 0, 100, 200 PPM IN DIET FOR 70 WK (STUDY DURATION: 70 WK)) does the source give for `CC1=C2C(=CO[C@H](C)[C@H]2C)C(=O)C(C(=O)O)=C1O` here?
Answer: Its carcinogen call is “inactive; negative”.

Question: And the carcinogen call (Species: RAT, Route: DIET, Dose: 0, 0.1%, FOR 32 WK, Tumor Site: Type of Lesion: KIDNEY: ADENOMA, ADENOCARCINOMA)?
Answer: Its carcinogen call is “active; positive”.

Question: And the carcinogen call (Species: RAT, Strain/Sex: F344/MALE, Route: ORAL, Dose: 0.1% IN DIET FOR 80 WK, Tumor Site: Type of Lesion: KIDNEY: CLEAR CELL ADENOMA)?
Answer: Its carcinogen call is “active; positive”.

Question: Which results are given for `OCCO`?
Answer: carcinogen call (Species: MOUSE, Strain/Sex: B6C3F1/FEMALE, Route: ORAL, Dose: 0, 12500, 25000, 50000 PPM IN DIET FOR 721 D (STUDY DURATION: 105 WK), Dose: 0, 12500, 25000, 50000 PPM IN DIET FOR 721 D (STUDY DURATION: 105 WK)): inactive; negative; carcinogen call (Species: MOUSE, Strain/Sex: B6C3F1/MALE, Route: ORAL, Dose: 0, 6250, 12500, 25000 PPM IN DIET FOR 721 D (STUDY DURATION: 105 WK), Dose: 0, 6250, 12500, 25000 PPM IN DIET FOR 721 D (STUDY DURATION: 105 WK)): inactive; negative

Question: How did the carcinogen call (Species: MOUSE, Strain/Sex: SWISS/FEMALE, Route: ORAL, Dose: 0, 0.0078% SOLUTION IN DRINKING WATER STARTING AT 6 WK OF AGE FOR LIFE FOR AVERAGE DAILY INTAKE OF 0 OR 0.80 MG (STUDY D, Tumor Site: Type of Lesion: LIVER: HEPATOMA OR CARCINOMA, LUNG: ADENOMA OR ADENOCARCINOMA) turn out when `CN(N)C=O` was run?
Answer: The carcinogen call was “active; positive”.

Question: What about the carcinogen call (Species: MOUSE, Strain/Sex: SWISS/MALE, Route: ORAL, Dose: 0, 0.0078% SOLUTION IN DRINKING WATER STARTING AT 6 WK OF AGE FOR LIFE FOR AVERAGE DAILY INTAKE OF 0 OR 0.99 MG (STUDY D, Tumor Site: Type of Lesion: LIVER: HEPATOMA OR CARCINOMA, LUNG: ADENOMA OR ADENOCARCINOMA, GALLBLADDER: ADENOMA, BILE DUCT: CHOLANGIOMA OR CHOLANGIO, Tumor Site: Type of Lesion: LIVER: HEPATOMA OR CARCINOMA, LUNG: ADENOMA OR ADENOCARCINOMA, GALLBLADDER: ADENOMA, BILE DUCT: CHOLANGIOMA OR CHOLANGIO) of the same compound?
Answer: Its carcinogen call is “active; positive”.

Question: Which results are given for `CC1=NN(c2ccccc2)C(=O)C1`?
Answer: carcinogen call (Species: MOUSE, Strain/Sex: B6C3F1/FEMALE, Route: ORAL, Dose: 0, 7500, 15000 PPM IN DIET, Dose: 0, 7500, 15000 PPM IN DIET): inactive; negative; carcinogen call (Species: MOUSE, Strain/Sex: B6C3F1/MALE, Route: ORAL, Dose: 0, 7500, 15000 PPM IN DIET, Dose: 0, 7500, 15000 PPM IN DIET): inactive; negative; carcinogen call (Species: RAT, Strain/Sex: F344/FEMALE, Route: ORAL, Dose: 0, 2500, 5000 PPM IN DIET, Dose: 0, 2500, 5000 PPM IN DIET): inactive; negative; carcinogen call (Species: RAT, Strain/Sex: F344/MALE, Route: ORAL, Dose: 0, 2500, 5000 PPM IN DIET, Dose: 0, 2500, 5000 PPM IN DIET): inactive; negative
